Several values for one entry are separate records, joined by “and”; a condition that tells them apart may be missing. Equal values may be shown once.
Columns and labels:
[1] = tested on: HUVEC spheroids; assay: HUVEC spheroid sprouting, cumulative sprout length (Example 5 modified in vitro model); type: cell-based, Human; conditions: for sprout length versus control across concentrations: 100, 20, 4, 0.8, 0.16, 0.032 μM
Protocol: Similar to the approach described in Example 1, two further compounds were evaluated for their ability to initiate or increase angiogenesis. HUVEC spheroids were prepared by pipetting 400 HUVE cells (PromoCell, Heidelberg, Germany, cultured according to supplier's instructions) into each well of non-adhesive 96-well plates and allowed to aggregate overnight. After harvesting, 48 spheroids were seeded in 900 μl of methocel-collagen solution and pipetted into individual wells in a 24-well plate, allowing for collagen gel polymerization. After 30 minutes, freshly-prepared test compounds were added (prepared by dissolving lyophilized compound at a concentration of 10 mM in DMSO, specific concentrations administered described below) by pipetting 100 μl of a 10-fold concentrated working dilution on top of the gel. At the end of the incubation period the dishes were fixed for 24 hours at 37° C. with paraformaldehyde.
Sprouting intensity of endothelial cells was quantitated by an image analysis system determining the cumulative sprout length per spheroid using an Olympus IX50 inverted microscope and Olympus image analysis software. The mean of the cumulative sprout length of 10 randomly selected spheroids was analyzed as an individual data point.

[2] = tested on: Human umbilical vein endothelial cells (HUVEC); assay: HUVEC cluster sprouting in collagen gel (Example 1 in vitro model); type: cell-based; conditions: for sprout length versus cells receiving VEGF only: co-administered with VEGF
Protocol: Human umbilical vein endothelial cells (HUVEC) were used to evaluate various gamma-secretase inhibitors for potential angiogenesis effect. A 72 cm2 flask of confluent cells (1.5-2 E6 cells) was trypsinized with 3.5 ml trypsin/EDTA. After a maximum of 3 minutes, the cells were rinsed with 1.5 ml serum then centrifuged at 200 g for 3 minutes. After centrifugation, the supernatant was discarded and the cells resuspended in medium (endothelial cell growth medium (Promocell) with additional 10% serum). Cell concentration was diluted to 2.0×10^4 cells/ml in medium supplemented with 20% methocel stock solution. The cells were clustered in hanging drops of 20 μl (400 cells) overnight.
To imbed the cells in gel, the drops were first rinsed with PBS. The clusters were centrifuged at 200 g for 3 minutes and the supernatant removed. Centrifuge tubes were then briefly drawn over a rough surface to loosen the pellet. The clusters were resuspended in ice cold methocel stock solution supplemented with 20% protein. An equal amount of collagen I-gel at 3 mg/ml (Becton-Dickinson) was carefully mixed with the cells. Immediately thereafter, 1000 μl of the gel/cell cluster mixture was added to each well of a preheated (37° C.) 24-well plate. The plate was incubated for 30 minutes at 37° C., 5% CO2 and 100% humidity. One hundred μl of medium, along with the desired test substance and optionally 2.5 μl of 10 μg/ml VEGF were added to each well to a final concentration in the top medium of 250 ng/ml and 25 ng/ml in the well. Negative control cells received medium only and positive control cells received medium and VEGF only. The wells without gel were given 1 ml PBS.
To quantify the results, ten clusters from each […] were photographed. The length of the five longest sprouts on each cluster was measured, and the sum of the sprout length from each cluster calculated. Average values from ten clusters were obtained.
The above-mentioned methocel stock solution was prepared by autoclaving 6 grams of pure methyl cellulose powder (Sigma) in a 500 ml flask containing a magnetic stirrer. After autoclaving the methyl cellulose was dissolved in 250 ml of basal medium preheated to 60° C. for 20 minutes. An additional 250 ml of basal medium at room temperature was added to a final volume of 500 ml and the solution stirred overnight. Finally, the stock solution was aliquotted and cleared through centrifugation at 5000g for 2 hours at room temperature. The 90-95% of the material which became the clear, highly viscous supernatant was used.

[3] = tested on: Oxygen-induced retinopathy mice; assay: Oxygen-induced retinopathy mouse model, retinal whole mount analysis; type: in vivo
Excerpt: Oxygen-induced retinopathy mice were used to determine the extent and effect of gamma-secretase inhibitors on the angiogenic process. Mice with oxygen induced retinopathy (OIR mice) are a commonly-used model and are described in the literature (see, Smith et al, supra). They are at times referred to as retinopathy of prematurity models or ROP mice. The model takes advantage of the fact that full term mice pups are born with an immature retinal vascularization which matures during the first three weeks of postnatal growth. Briefly, neonatal mice (NMRI/C57b1) from the same litter were placed, with their nursing mother, in a hyperoxic environment (75% oxygen) at age day seven. After exposure to the hyperoxic environment for 5 days, the 12-day old pups were removed to normal air. In the treated mice, DAPT was administered once daily during age days 12-16. Control pups were treated the same way but injected with the vehicle. At post natal day 17 the mice were euthanized and the retinas were prepared for whole mount immunohistochemistry. Except for the mode of injection, the stock solution of DAPT was prepared and administered essentially as described in Lanz et al., (2003, J. Pharmacol. Exp. Ther. 305:864-71). In short, 5 mg DAPT was dissolved in 25 μl 99.5% EtOH and then dissolved in 475 μl Corn oil (Sigma, Catalog No. C8267). If precipitate formed, the solution was heated to 70° C. for 2-3 minutes. The pups were injected subcutaneously once a day according to: V(μl)=weight (g)*10, that is, 100 mg DAPT/kg body weight. Control pups were injected subcutaneously once a day with the same amount of vehicle (i.e. 5% EtOH in corn oil). Eyes were fixed in 4% PFA in PBS at 4° C. overnight and washed in PBS. […] This can be quantified in the superficial capillary plexus by counting the number of capillary enclosed areas in the peripheral part of the retina.

[4] = tested on: new born mice; assay: Physiological retinal angiogenesis in new born (non-OIR) mice; type: in vivo; conditions: administered postnatal days 3 and 4, retinas analysed day 5
Protocol: To investigate if the increased retinal vascularization after DAPT treatment was restricted to the OIR, the effect of DAPT on physiological angiogenesis in new born mice was investigated. DAPT was administered to new born mice on postnatal days 3 and 4 and retinas were analyzed at day 5 as described above. […] This can be observed by comparing the degree of vascularization in the retina of control animals, FIGS. 20 and 21, with that of treated animals as shown in FIGS. 22 and 23. Except for the increased vascular density, the vascular architecture was normal. The growth of the vascular network towards the periphery and the arterio-venous specification were intact for DAPT-treated mice as with controls.

[5] = 100 μM test compound co-administered with 25 ng/ml VEGF-A
[6] = 100 μM test compound, no VEGF-A

`C[C@H](NC(=O)C(O)c1cc(F)cc(F)c1)C(=O)N[C@H]1N=C(c2ccccc2)c2ccccc2N(C)C1=O` (stereo partly drawn) [Compound X, S-3-[N′-(3,5-difluorophenyl-alpha-hydroxyacetyl)-L-alanilyl]amino-2,3-dihydro-1-methyl-5-phenyl-1H-1,4-benzodiazepin-2-one] was tested, and the “sprouting versus VEGF-A only” value ([1]; 4 μM test compound co-administered with VEGF-A) was “increase the sprouting significantly”, the “cumulative length of all sprouts (CSL)” value [1, 5] was 4289 μm and the “cumulative length of all sprouts (CSL)” value [1, 6] was 1630 μm. The “sprout length versus control across concentrations” value ([1]; no VEGF-A) was “Only the two lowest concentrations tested failed to produce longer sprouts that control”.
With `CC1(C)[C@@H]2CC[C@@](C)(C2)[C@@H]1NS(=O)(=O)c1ccc(F)cc1` [1-(S)-endo-N-(1,3,3)-Trimethylbicyclo[2.2.1]hept-2-yl)-4-fluorophenyl Sulfonamide] the average sprout length ([2]; 0.16 μM test compound, no VEGF) was 280 μm, the “increase in length versus control cells” value ([2]; 0.16 μM, no VEGF) was 100% and the average sprout length ([2]; 20 μM test compound co-administered with VEGF) was 480 μm.
`CC(C)[C@H](O)C(=O)N[C@@H](C)C(=O)N[C@@H]1C(=O)N(C)CCc2ccccc21` [LY-450, 139, (N)—[(S)-2-hydroxy-3-methyl-butyryl]-1-(L-alaninyl)-(S)-1-amino-3-methyl-4,5,6,7-tetrahydro-2H-3-benzazepin-2-one] was tested, and the “cumulative length of all sprouts (CSL)” value [1, 5] was 3521 μm, the “cumulative length of all sprouts (CSL)” value [1, 6] was 1730 μm and the “sprout length versus control across concentrations” value ([1]; no VEGF-A) was “lower concentrations were not found to be effective”. For the same compound, the “sprout length versus VEGF-A only across concentrations” value ([1]; 100 to 0.032 μM co-administered with 25 ng/ml VEGF-A) was “Only the lowest concentration tested failed to produce longer sprouts that VEGF-A”.
For VEGF, the average sprout length ([2]; VEGF only (positive control), 25 ng/ml in the well) was 460 μm and 370 μm and 320 μm and the “cumulative length of all sprouts (CSL)” value ([1]; VEGF-A only, 25 ng/ml) was 1794 μm and 1860+/−100 μm.
With `COC(=O)[C@@H](NC(=O)[C@H](CC(C)C)NC(=O)N(Cc1ccccc1)C[C@@H](O)[C@H](Cc1ccccc1)NC(=O)OC(C)(C)C)C(C)C` [WPE-III-31C] the average sprout length ([2]; 0.16 μM test compound co-administered with VEGF) was 410 μm, the average sprout length ([2]; 0.16 μM test compound, no VEGF) was 230 μm and the “sprout length at increasing concentrations” value ([2]; WPE-III-31C 0.16, 0.8 and 4 μM, no VEGF) was “only increased with increasing concentrations”. The “sprout length versus cells receiving VEGF only” value [2] was “significantly longer sprout lengths than the control cells”.
In the case of `C[C@H](NC(=O)Cc1cc(F)cc(F)c1)C(=O)N[C@H](C(=O)OC(C)(C)C)c1ccccc1` [DAPT], the average sprout length ([2]; 0.08 μM test compound, no VEGF, +/- SEM) is reported as 330+/−28 μm, the average sprout length ([2]; 0.4 μm DAPT co-administered with VEGF) is reported as 550+/−32 μm and the “sprout length at increasing levels” value ([2]; DAPT 0.4, 2, 10 and 50, no VEGF, versus 0.08 μM) is reported as “further increases in sprout length”. For the same compound, the “sprout length versus cells receiving VEGF only” value [2] was “increases in sprout length over those with VEGF alone”, the “avascular zones in the central retina” value ([3]; 100 mg/kg s.c. once daily days 12-16, analysed day 17) was “almost completely lack the vascular-free zones” and the “number of capillary enclosed areas in the peripheral retina” value ([3]; 100 mg/kg s.c. once daily days 12-16, day 17, versus vehicle control) was “near doubling”. The “vascular (capillary) tufts in retina” value ([3]; 100 mg/kg s.c. once daily days 12-16, versus control) was “significant reduction in capillary tufts”, the “peripheral retinal vascular density” value [4] was “increased peripheral vascular density” and the “vascular architecture of retina” value [4] was “normal”.
